# Target: T1, AsPC-1 HiBiT-KRASG12D (Homo sapiens, UniProt P01116, G12D)
# T1 construct: insert the HiBiT tag onto the N-terminus of one or more of the endogenous KRAS alleles; endogenous in cells; host or cells: AsPC-1 (ATCC CRL-1682), CRISPR-Cas9 knock-in clone, one tagged allele
# Experiment: HiBiT degradation assay (G12D), AsPC-1 HiBiT-KRASG12D cells
# Assay type: cell-based
# Conditions: 24 hours treatment; for DC50: AsPC-1 HiBiT-KRASG12D cells, HiBiT luminescence; for Dmax: ASPC1, AsPC-1 HiBiT-KRASG12D cells, maximum degradation observed
# Summary of the method: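 Steps: treat HiBiT-KRASG12D AsPC-1 cells with compound for 24 hours; add alamar blue to 1× and incubate 4 hours to assess viability; wash with PBS; add HiBiT lytic detection reagent, incubate 45 minutes at room temperature; read luminescence. Viability fluorescence is normalized to DMSO wells.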
# T1 sequence (P01116 1-188 isoform P01116-2 G12D): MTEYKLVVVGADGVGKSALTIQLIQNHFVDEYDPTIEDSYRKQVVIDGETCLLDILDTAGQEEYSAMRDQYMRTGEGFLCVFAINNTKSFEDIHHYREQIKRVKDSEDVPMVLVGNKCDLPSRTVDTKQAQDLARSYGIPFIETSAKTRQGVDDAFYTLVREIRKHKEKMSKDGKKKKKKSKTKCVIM
compound,measurement,value
CCc1cccc2cccc(-c3ncc4c(N5CCCCCC5)nc(OC[C@]56CCCN5[C@H](COC(=O)N5CCN(c7cc([C@H](C(=O)N8C[C@H](O)C[C@H]8C(=O)N[C@@H](C)c8ccc(-c9scnc9C)cc8)C(C)C)on7)CC5)CC6)nc4c3F)c12 (relative stereo) [Compound 331],DC50,> 3000 nM
"C#Cc1c(F)ccc2cccc(-c3ncc4c(N5CC6CCC(C5)N6)nc(OC[C@@]56CCCN5[C@@H](COC(=O)N5CCN(c7cc([C@H](C(=O)N8C[C@H](O)C[C@H]8C(=O)N[C@@H](C)c8ccc(-c9scnc9C)cc8)C(C)C)on7)CC5)CC6)nc4c3F)c12 (relative stereo) [Compound 334, [(3R,8S)-8-[[4-(3,8-diazabicyclo[3.2.1]octan-3-yl)-7-(8-ethynyl-7-fluoro-1-naphthyl)-8-fluoro-pyrido[4,3-d]pyrimidin-2-yl]oxymethyl]-1,2,3,5,6,7-hexahydropyrrolizin-3-yl]methyl 4-[5-[(1R)-1-[(2S,4R)-4-hydroxy-2-[[(1S)-1-[4-(4-methylthiazol-5-yl)phenyl]ethyl]carbamoyl]pyrrolidine-1-carbonyl]-2-methyl-propyl]isoxazol-3-yl]piperazine-1-carboxylate]",Dmax,60 to 80%
same,DC50,< 600 nM
"CCc1cccc2cc(O)cc(-c3ncc4c(N5CC6CCC(C5)N6)nc(OCCN5C[C@@H]6CN(c7cc(C(C(=O)N8C[C@H](O)C[C@H]8C(=O)N[C@@H](C)c8ccc(-c9scnc9C)cc8)C(C)C)on7)C[C@@H]6C5)nc4c3F)c12 (single isomer, unassigned) [Compound 79, (2S,4R)-1-[(2R*)-2-{3-[(3aR,6aS)-5-{2-[(4-{3,8-diazabicyclo[3.2.1]octan-3-yl}-7-(8-ethyl-3-hydroxynaphthalen-1-yl)-8-fluoropyrido[4,3-d]pyrimidin-2-yl)oxy]ethyl}-octahydropyrrolo[3,4-c]pyrrol-2-yl]-1,2-oxazol-5-yl}-3-methylbutanoyl]-4-hydroxy-N-[(1S)-1-[4-(4-methyl-1,3-thiazol-5-yl)phenyl]ethyl]pyrrolidine-2-carboxamide]",Dmax,80 to 100%
same,DC50,< 600 nM
"C#Cc1c(F)ccc2cc(O)cc(-c3ncc4c(N5CC6CCC(C5)N6)nc(OCCN5CCC6(CC5)CN(c5cc(C(C(=O)N7C[C@H](O)C[C@H]7C(=O)N[C@@H](C)c7ccc(-c8ccnn8C)cc7)C(C)C)on5)C6)nc4c3F)c12 (single isomer, unassigned) [Compound 83, (2S,4R)-1-[(2R*)-2-[3-(7-{2-[(4-{3,8-diazabicyclo[3.2.1]octan-3-yl}-7-(8-ethynyl-7-fluoro-3-hydroxynaphthalen-1-yl)-8-fluoropyrido[4,3-d]pyrimidin-2-yl)oxy]ethyl}-2,7-diazaspiro[3.5]nonan-2-yl)-1,2-oxazol-5-yl]-3-methylbutanoyl]-4-hydroxy-N-[(1S)-1-[4-(1-methyl-1H-pyrazol-5-yl)phenyl]ethyl]pyrrolidine-2-carboxamide]",Dmax,80 to 100%
same,DC50,< 600 nM
"CCc1cccc2cc(O)cc(-c3ncc4c(N5CC6CCC(C5)N6)nc(OC[C@@]56CCCN5[C@@H](COC(=O)N5CCN(c7cc(C(C(=O)N8C[C@H](O)C[C@H]8C(=O)N[C@@H](C)c8ccc(-c9scnc9C)cc8)C(C)C)on7)CC5)CC6)nc4c3F)c12 (single isomer, unassigned) [Compound 108, [(3R,7aS)-7a-{[(4-{3,8-diazabicyclo[3.2.1]octan-3-yl}-7-(8-ethyl-3-hydroxynaphthalen-1-yl)-8-fluoropyrido[4,3-d]pyrimidin-2-yl)oxy]methyl}-hexahydro-1H-pyrrolizin-3-yl]methyl 4-{5-[(2R*)-1-[(2S,4R)-4-hydroxy-2-{[(1S)-1-[4-(4-methyl-1,3-thiazol-5-yl)phenyl]ethyl]carbamoyl}pyrrolidin-1-yl]-3-methyl-1-oxobutan-2-yl]-1,2-oxazol-3-yl}piperazine-1-carboxylate]",Dmax,80 to 100%
same,DC50,< 600 nM
"CCc1cccc2cc(O)cc(-c3ncc4c(N5CC6CCC(C5)N6)nc(OC[C@]56CCCN5[C@H](COC(=O)N5CCN(c7cc(C(C(=O)N8C[C@H](O)C[C@H]8C(=O)N[C@@H](C)c8ccc(-c9scnc9C)cc8)C(C)C)on7)CC5)CC6)nc4c3F)c12 (single isomer, unassigned) [Compound 109, [(3S,7aR)-7a-{[(4-{3,8-diazabicyclo[3.2.1]octan-3-yl}-7-(8-ethyl-3-hydroxynaphthalen-1-yl)-8-fluoropyrido[4,3-d]pyrimidin-2-yl)oxy]methyl}-hexahydro-1H-pyrrolizin-3-yl]methyl 4-{5-[(2R*)-1-[(2S,4R)-4-hydroxy-2-{[(1S)-1-[4-(4-methyl-1,3-thiazol-5-yl)phenyl]ethyl]carbamoyl}pyrrolidin-1-yl]-3-methyl-1-oxobutan-2-yl]-1,2-oxazol-3-yl}piperazine-1-carboxylate]",Dmax,80 to 100%
same,DC50,< 600 nM
"CCc1cccc2cc(O)cc(-c3ncc4c(N5CC6CCC(C5)N6)nc(OCCN5CCC(CCC6CN(c7cc([C@H](C(=O)N8C[C@H](O)C[C@H]8C(=O)N[C@@H](C)c8ccc(-c9scnc9C)cc8)C(C)C)on7)C6)CC5)nc4c3F)c12 (single isomer, unassigned) [Compound 250, (2S,4R)-1-[(2R*)-2-(3-{3-[2-(1-{2-[(4-{3,8-diazabicyclo[3.2.1]octan-3-yl}-7-(8-ethyl-3-hydroxynaphthalen-1-yl)-8-fluoropyrido[4,3-d]pyrimidin-2-yl)oxy]ethyl}piperidin-4-yl)ethyl]azetidin-1-yl}-1,2-oxazol-5-yl)-3-methylbutanoyl]-4-hydroxy-N-[(1S)-1-[4-(4-methyl-1,3-thiazol-5-yl)phenyl]ethyl] pyrrolidine-2-carboxamide]",Dmax,80 to 100%
same,DC50,< 600 nM
"CCc1cccc2cc(O)cc(-c3ncc4c(N5CC6CCC(C5)N6)nc(OCCN5CCC(C(C)(C)N6CCN(c7cc([C@H](C(=O)N8C[C@H](O)C[C@H]8C(=O)N[C@@H](C)c8ccc(-c9scnc9C)cc8)C(C)C)on7)CC6)CC5)nc4c3F)c12 (single isomer, unassigned) [Compound 251, (2S,4R)-1-[(2R*)-2-(3-{4-[2-(1-{2-[(4-{3,8-diazabicyclo[3.2.1]octan-3-yl}-7-(8-ethyl-3-hydroxynaphthalen-1-yl)-8-fluoropyrido[4,3-d]pyrimidin-2-yl)oxy]ethyl}piperidin-4-yl)propan-2-yl]piperazin-1-yl}-1,2-oxazol-5-yl)-3-methylbutanoyl]-4-hydroxy-N-[(1S)-1-[4-(4-methyl-1,3-thiazol-5-yl)phenyl]ethyl] pyrrolidine-2-carboxamide]",Dmax,80 to 100%
same,DC50,< 600 nM
"CCc1cccc2cc(O)cc(-c3ncc4c(N5CC6CCC(C5)N6)nc(OCCN5CCC(CCC6CN(c7cc([C@@H](C(=O)N8C[C@H](O)C[C@H]8C(=O)N[C@@H](C)c8ccc(-c9scnc9C)cc8)C(C)C)on7)C6)CC5)nc4c3F)c12 (single isomer, unassigned) [Compound 253, (2S,4R)-1-[(2R*)-2-(3-{3-[2-(1-{2-[(4-{3,8-diazabicyclo[3.2.1]octan-3-yl}-7-(8-ethyl-3-hydroxynaphthalen-1-yl)-8-fluoropyrido[4,3-d]pyrimidin-2-yl)oxy]ethyl}piperidin-4-yl)ethyl]azetidin-1-yl}-1,2-oxazol-5-yl)-3-methylbutanoyl]-4-hydroxy-N-[(1S)-1-[4-(4-methyl-1,3-thiazol-5-yl)phenyl]ethyl] pyrrolidine-2-carboxamide]",Dmax,20 to 60%
same,DC50,1000 to 3000 nM
"CCc1cccc2cc(O)cc(-c3ncc4c(N5CC6CCC(C5)N6)nc(OCCN5CCC(C(C)(C)N6CCN(c7cc([C@@H](C(=O)N8C[C@H](O)C[C@H]8C(=O)N[C@@H](C)c8ccc(-c9scnc9C)cc8)C(C)C)on7)CC6)CC5)nc4c3F)c12 (single isomer, unassigned) [Compound 254, (2S,4R)-1-[(2R*)-2-(3-{4-[2-(1-{2-[(4-{3,8-diazabicyclo[3.2.1]octan-3-yl}-7-(8-ethyl-3-hydroxynaphthalen-1-yl)-8-fluoropyrido[4,3-d]pyrimidin-2-yl)oxy]ethyl}piperidin-4-yl)propan-2-yl]piperazin-1-yl}-1,2-oxazol-5-yl)-3-methylbutanoyl]-4-hydroxy-N-[(1S)-1-[4-(4-methyl-1,3-thiazol-5-yl)phenyl]ethyl] pyrrolidine-2-carboxamide]",Dmax,20 to 60%
same,DC50,600 to 1000 nM
"CCc1cccc2cc(O)cc(-c3ncc4c(N5CC6CCC(C5)N6)nc(OCCN5CCC(CC6CN(c7cc([C@H](C(=O)N8C[C@H](O)C[C@H]8C(=O)N[C@@H](C)c8ccc(-c9ccnn9C)cc8)C(C)C)on7)C6)CC5)nc4c3F)c12 (single isomer, unassigned) [Compound 264, (2S,4R)-1-[(2R*)-2-(3-{3-[(1-{2-[(4-{3,8-diazabicyclo[3.2.1]octan-3-yl}-7-(8-ethyl-3-hydroxynaphthalen-1-yl)-8-fluoropyrido[4,3-d]pyrimidin-2-yl)oxy]ethyl}piperidin-4-yl)methyl]azetidin-1-yl}-1,2-oxazol-5-yl)-3-methylbutanoyl]-4-hydroxy-N-[(1S)-1-[4-(1-methyl-1H-pyrazol-5-yl)phenyl]ethyl] pyrrolidine-2-carboxamide]",Dmax,80 to 100%
same,DC50,< 600 nM
"CCc1cccc2cc(O)cc(-c3ncc4c(N5CC6CCC(C5)N6)nc(OCCN5CCC(CC6CN(c7cc([C@@H](C(=O)N8C[C@H](O)C[C@H]8C(=O)N[C@@H](C)c8ccc(-c9ccnn9C)cc8)C(C)C)on7)C6)CC5)nc4c3F)c12 (single isomer, unassigned) [Compound 265, (2S,4R)-1-[(2R*)-2-(3-{3-[(1-{2-[(4-{3,8-diazabicyclo[3.2.1]octan-3-yl}-7-(8-ethyl-3-hydroxynaphthalen-1-yl)-8-fluoropyrido[4,3-d]pyrimidin-2-yl)oxy]ethyl}piperidin-4-yl)methyl]azetidin-1-yl}-1,2-oxazol-5-yl)-3-methylbutanoyl]-4-hydroxy-N-[(1S)-1-[4-(1-methyl-1H-pyrazol-5-yl)phenyl]ethyl]pyrrolidine-2-carboxamide]",Dmax,60 to 80%
same,DC50,1000 to 3000 nM
